Laboratory results reported in patent publication US20110262556A1, “SILVER/WATER, SILVER GELS AND SILVER-BASED COMPOSITIONS; AND METHODS FOR MAKING AND USING THE SAME” (AMERICAN SILVER, LLC, priority 2005, published 2011).
In brackets after ≈: the same amount, converted by molar mass. Read-outs that look alike come from different tables or passages of the source.

What was measured:
[1] = system: E. coil; assay: Zone of inhibition, agar well; conditions: E.coli; antibiotic amount (5-200 mcg)
[2] = system: MRSA 1; assay: Zone of inhibition, agar well; conditions: antibiotic amount (1-200 mcg)
[3] = system: MRSA 2; assay: Zone of inhibition, agar well; conditions: antibiotic amount (1-200 mcg)
[4] = system: S. aureus ATCC 6538 P; assay: Zone of inhibition, agar well; conditions: antibiotic amount (1-200 mcg)
[5] = system: S.typhi; assay: Zone of inhibition, agar well; conditions: antibiotic amount (5-200 mcg)
[6] = system: Escherichia coli MDR clinical isolate (stool); assay: Antibiotic sensitivity, Kirby Bauer; conditions: gram-negative isolate E. coli
[7] = system: Pseudomonas aeruginosa MDR clinical isolate (sputum); assay: Antibiotic sensitivity, Kirby Bauer; conditions: gram-negative isolate Pseudomonas
[8] = system: S. pyogenes; assay: MIC/MBC broth microdilution; format: cell-based, Streptococcus pyogenes
[9] = system: S. mutans; assay: MIC/MBC broth microdilution; format: cell-based, Streptococcus mutans
[10] = system: S gordonii; assay: MIC/MBC broth microdilution; format: cell-based, Streptococcus gordonii
[11] = system: S. pneumoniae; assay: MIC/MBC broth microdilution; format: cell-based
[12] = system: S. faecalis; assay: MIC/MBC broth microdilution; format: cell-based, Streptococcus faecalis
[13] = system: S. aureus; assay: MIC/MBC broth microdilution; format: cell-based, Staphylococcus aureus
[14] = system: P. aeruginosa; assay: MIC/MBC broth microdilution; format: cell-based, Pseudomonas aeruginosa
[15] = system: E. coli; assay: MIC/MBC broth microdilution; format: cell-based, Escherichia coli
[16] = system: E. aerogenes; assay: MIC/MBC broth microdilution; format: cell-based, Enterobacter aerogenes; conditions: E. aerogenes
[17] = system: S. typhimurium; assay: MIC/MBC broth microdilution; format: cell-based; conditions: S. typhimurium
[18] = system: S arizona; assay: MIC/MBC broth microdilution; format: cell-based, Salmonella arizona
[19] = system: S. boydii; assay: MIC/MBC broth microdilution; format: cell-based, Shigella boydii; conditions: S. boydii
[20] = system: K. pneumoniae; assay: MIC/MBC broth microdilution; format: cell-based, Klebsiella pneumoniae
[21] = system: K. oxytoca; assay: MIC/MBC broth microdilution; format: cell-based; conditions: K. oxytoca
[22] = system: Ps. Aeruginosa; assay: Zone of inhibition, agar well; conditions: antibiotic amount (5-200 mcg)
[23] = system: B. subtilis; assay: Zone of inhibition, agar well; conditions: antibiotic amount (1-200 mcg)
[24] = system: E. cloacae; assay: MIC/MBC broth microdilution; format: cell-based; conditions: Enterobacter cloacae, read-out: MIC

Which “zone of inhibition, antibiotics” value [1] does the source give for CC1(C)S[C@@H]2[C@H](NC(=O)[C@H](N)c3ccccc3)C(=O)N2[C@H]1C(=O)O [Ampicillin] here?
The value was 23 mm.

And the “zone of inhibition, antibiotics” value [2]?
The value was 15 mm.

And the “zone of inhibition, antibiotics” value [3]?
Its value is 18 mm.

And the “zone of inhibition, antibiotics” value [4]?
The value was “Clear”.

What about the “zone of inhibition, antibiotics” value [5] of the same compound?
The value was 20 mm.

What about the resistance of isolate [6] of the same compound?
Its resistance of isolate is “resistance”.

And the resistance of isolate [7]?
The resistance of isolate was “resistance”.

Which results are given for CCN1CCN(C(=O)N[C@@H](C(=O)N[C@@H]2C(=O)N3C(C(=O)O)=C(CSc4nnnn4C)CS[C@H]23)c2ccc(O)cc2)C(=O)C1=O [Cefaperazon]?
MBC [8]: 1.25 ppm; MIC [8]: 0.313 ppm; MBC [9]: > 5 ppm; MIC [9]: 1.25 ppm; MBC ([10]; S gordonii): 1.25/1.25 ppm; MIC ([10]; S gordonii): 1.25/1.25 ppm; MBC [11]: 0.313/0.313 ppm; MIC [11]: 0.313/0.313 ppm; MIC [12]: >5.0 ppm; MBC [13]: 5.0/5.0 ppm; MIC [13]: 5.0/5.0 ppm; MBC [14]: 5.0 ppm; MIC [14]: 2.5 ppm; MBC [15]: > 5.0 ppm; MIC [15]: 0.625 ppm; MBC [16]: > 5.0 ppm; MIC [16]: 2.92 ppm; MBC [17]: 2.5 ppm; MIC [17]: 1.25 ppm; MBC [18]: > 5.0 ppm; MIC [18]: 0.833 ppm; MBC [19]: 0.625/0.625 ppm; MIC [19]: 0.625/0.625 ppm; MIC [20]: >5.0 ppm; MBC [21]: > 5.0 ppm; MIC [21]: 1.25 ppm

What does the source list for CO/N=C(\C(=O)N[C@@H]1C(=O)N2C(C(=O)O)=C(COC(C)=O)CS[C@H]12)c1csc(N)n1 [Cefotaxime]?
zone of inhibition, antibiotics [1]: 21 mm; zone of inhibition, antibiotics [3]: -Clear; zone of inhibition, antibiotics [4]: 26 mm; zone of inhibition, antibiotics [5]: 22 mm

With CO/N=C(\C(=O)N[C@@H]1C(=O)N2C(C(=O)O)=CCS[C@H]12)c1csc(N)n1 [Ceftizoxime] as the compound, how does the “zone of inhibition, antibiotics” value [1] read?
Its value is 18 mm.

And the “zone of inhibition, antibiotics” value [22]?
Its value is “No inhibition”.

What about the “zone of inhibition, antibiotics” value [5] of the same compound?
Its value is 15 mm.

How did the “zone of inhibition, antibiotics” value [23] turn out when CC1=C(C(=O)O)N2C(=O)[C@@H](NC(=O)[C@H](N)c3ccccc3)[C@H]2SC1 [Cephalexin] was run?
Its value is “Clear”.

What about the “zone of inhibition, antibiotics” value [2] of the same compound?
The value was 1.0 mm.

What about the “zone of inhibition, antibiotics” value [3] of the same compound?
Its value is 0.8 mm.

What about the “zone of inhibition, antibiotics” value [4] of the same compound?
The value was “Clear”.

With O=C(N[C@H](CO)[C@H](O)c1ccc([N+](=O)[O-])cc1)C(Cl)Cl [Chloramphenicol] as the compound, how does the “zone of inhibition, antibiotics” value [1] read?
Its value is 22 mm.

What about the “zone of inhibition, antibiotics” value [22] of the same compound?
Its value is “No inhibition”.

And the “zone of inhibition, antibiotics” value [5]?
The value was 23 mm.

O=C(O)c1cn(C2CC2)c2cc(N3CCNCC3)c(F)cc2c1=O [Ciprofloxacin] was tested. Which “zone of inhibition, antibiotics” value [1] did it give?
The value was 29 mm.

And the “zone of inhibition, antibiotics” value [2]?
The value was 14 mm.

And the “zone of inhibition, antibiotics” value [3]?
The value was 14 mm.

What about the “zone of inhibition, antibiotics” value [4] of the same compound?
Its value is 28 mm.

And the “zone of inhibition, antibiotics” value [5]?
The value was 25 mm.

Which “zone of inhibition, antibiotics” value [2] does the source give for Cc1onc(-c2ccccc2Cl)c1C(=O)N[C@@H]1C(=O)N2[C@@H]1SC(C)(C)[C@@H]2C(=O)O [Cloxacillin] here?
The value was “Clear”.

What about the “zone of inhibition, antibiotics” value [3] of the same compound?
Its value is 13 mm.

What about the “zone of inhibition, antibiotics” value [4] of the same compound?
Its value is “Clear”.

Which MBC ([8]; Streptococcus pyogenes, read-out: MBC) does the source give for CC[C@H]1OC(=O)[C@H](C)[C@@H](O[C@H]2C[C@@](C)(OC)[C@@H](O)[C@H](C)O2)[C@H](C)[C@@H](O[C@@H]2O[C@H](C)C[C@H](N(C)C)[C@H]2O)[C@](C)(O)C[C@@H](C)C(=O)[C@H](C)[C@@H](O)[C@]1(C)O [Erythromycin] here?
The MBC was 0.019 µg/mL (≈ 0.0259 µM).

And the MIC ([8]; Streptococcus pyogenes, read-out: MIC)?
Its MIC is 0.003 µg/mL (≈ 0.00409 µM).

And the MBC ([9]; Streptococcus mutans, read-out: MBC)?
The MBC was 0.019 µg/mL (≈ 0.0259 µM).

And the MIC ([9]; Streptococcus mutans, read-out: MIC)?
Its MIC is 0.009 µg/mL (≈ 0.0123 µM).

What about the MBC ([10]; Streptococcus gordonii, read-out: MBC) of the same compound?
The MBC was 0.019 µg/mL (≈ 0.0259 µM).

What about the MIC ([10]; Streptococcus gordonii, read-out: MIC) of the same compound?
Its MIC is 0.005 µg/mL (≈ 0.00681 µM).

And the MBC ([11]; Streptococcus pneumoniae, read-out: MBC)?
Its MBC is 0.004 µg/mL (≈ 0.00545 µM).

What about the MIC ([11]; Streptococcus pneumoniae, read-out: MIC) of the same compound?
The MIC was 0.002 µg/mL (≈ 0.00273 µM).

And the MBC ([12]; Enterococcus faecalis, read-out: MBC)?
The MBC was 1.25 µg/mL (≈ 1.7 µM).

And the MIC ([12]; Enterococcus faecalis, read-out: MIC)?
The MIC was 0.009 µg/mL (≈ 0.0123 µM).

What about the MBC ([13]; Staphylococcus aureus, read-out: MBC) of the same compound?
Its MBC is greater than 5 µg/mL.

What about the MIC ([13]; Staphylococcus aureus, read-out: MIC) of the same compound?
The MIC was 0.039 µg/mL (≈ 0.0531 µM).

What about the MBC ([14]; Pseudomonas aeruginosa, read-out: MBC) of the same compound?
The MBC was greater than 5 µg/mL.

And the MIC ([14]; Pseudomonas aeruginosa, read-out: MIC)?
Its MIC is 2.5 µg/mL (≈ 3.41 µM).

And the MBC ([15]; Escherichia coli, read-out: MBC)?
Its MBC is greater than 5 µg/mL.

And the MIC ([15]; Escherichia coli, read-out: MIC)?
The MIC was 5 µg/mL (≈ 6.81 µM).

What about the MIC ([16]; Klebsiella aerogenes, read-out: MIC) of the same compound?
Its MIC is greater than 5 µg/mL.

And the MIC [24]?
Its MIC is greater than 5 µg/mL.

What about the MBC ([17]; Salmonella enterica, read-out: MBC) of the same compound?
Its MBC is greater than 5 µg/mL.

What about the MIC ([17]; Salmonella enterica, read-out: MIC) of the same compound?
Its MIC is 5 µg/mL (≈ 6.81 µM).

What about the MBC ([18]; Salmonella, read-out: MBC) of the same compound?
Its MBC is greater than 5 µg/mL.

And the MIC ([18]; Salmonella, read-out: MIC)?
Its MIC is 4.17 µg/mL (≈ 5.68 µM).

What about the MBC ([19]; Shigella boydii, read-out: MBC) of the same compound?
The MBC was greater than 5 µg/mL.

And the MIC ([19]; Shigella boydii, read-out: MIC)?
The MIC was 5 µg/mL (≈ 6.81 µM).

What about the MIC ([20]; Klebsiella pneumoniae, read-out: MIC) of the same compound?
Its MIC is greater than 5 µg/mL.

What about the MIC ([21]; Klebsiella oxytoca, read-out: MIC) of the same compound?
Its MIC is greater than 5 µg/mL.
